Among the test systems are OVCAR-8 ovarian; 786-0 renal; EKVX NSCLC; KM12 colon; SK-MEL-28 melanoma; SF-295 CNS; CCRF-CEM leukemia; OVCAR-4 ovarian; LOX IMVI melanoma; UO-31 renal.
Assay in all cases: inhibition of tumour cell growth, NCI panel, 48 h

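Results reflect a 48-hour exposure of cells in 96-well plates to compound at five concentrations. Here, GI50 denotes the concentration required for 50% inhibition of growth. TGI: concentration producing complete growth inhibition.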

On to `Cn1ccnc1C(=O)/C=C/c1ccc(CC(=O)Nc2ccc(Cl)cc2)cc1`, for which the GI50 is 3490 nM with OVCAR-8 ovarian; 1600 nM with 786-0 renal; 15.6 µM in the assay on EKVX NSCLC; 1510 nM with KM12 colon; above 25 µM in the assay on SK-MEL-28 melanoma; 7.39 µM in the assay on SF-295 CNS. Further, the GI50 with CCRF-CEM leukemia was 1.46 µM; in the assay on OVCAR-4 ovarian, 2.18 µM; in the assay on LOX IMVI melanoma, 1070 nM; in the assay with UO-31 renal, 2270 nM. Moreover, the TGI in the assay on OVCAR-8 ovarian, in the assay on 786-0 renal, with EKVX NSCLC, in the assay on KM12 colon, in the assay with SK-MEL-28 melanoma and in the assay on SF-295 CNS was above 25 µM in each case. Moreover, the TGI with CCRF-CEM leukemia, with OVCAR-4 ovarian, in the assay with LOX IMVI melanoma and in the assay with UO-31 renal was above 25 µM in each case.
On to `CCCCCCCCCCCCCS(=O)(=O)O`, for which the TGI with OVCAR-8 ovarian, in the assay with 786-0 renal, with EKVX NSCLC, in the assay on KM12 colon, in the assay on SK-MEL-28 melanoma and with SF-295 CNS was above 100 µM each time. The TGI in the assay on CCRF-CEM leukemia, with OVCAR-4 ovarian, with LOX IMVI melanoma and with UO-31 renal was above 100 µM throughout.
Turning to `O=C(Nc1ccc(Cl)c([N+](=O)[O-])c1)Nc1nc2ccccc2s1`, the GI50 is 3330 nM in the assay with OVCAR-8 ovarian; 10300 nM in the assay with 786-0 renal; 2.59 µM with EKVX NSCLC; 2820 nM with KM12 colon; 4.95 µM in the assay on SK-MEL-28 melanoma; 2.01 µM in the assay with SF-295 CNS. For the same compound, the GI50 in the assay on CCRF-CEM leukemia was 3.88 µM; with OVCAR-4 ovarian it was 4.21 µM; in the assay on LOX IMVI melanoma it was 3980 nM; in the assay on UO-31 renal, 2910 nM. Further, the TGI in the assay with OVCAR-8 ovarian was 17.7 µM; with 786-0 renal, 26.8 µM; in the assay with EKVX NSCLC, 10.9 µM; with KM12 colon, 8.32 µM; in the assay with SK-MEL-28 melanoma, 21.3 µM; with SF-295 CNS, 5.41 µM. Moreover, the values for the TGI with CCRF-CEM leukemia, in the assay on OVCAR-4 ovarian and with LOX IMVI melanoma were 20.8 µM, 26 µM and 21 µM, respectively.
Turning to `CN(C)CCNC(=O)c1ccc(Nc2nc3ccccc3c3occc23)cc1`, the GI50 in the assay on OVCAR-8 ovarian was 2080 nM; in the assay on 786-0 renal, 2570 nM; in the assay with EKVX NSCLC, 11.7 µM; in the assay with KM12 colon it was 1890 nM; in the assay on SK-MEL-28 melanoma it was 16.5 µM; in the assay with SF-295 CNS, 1.88 µM. In addition, the GI50 is 3.04 µM with CCRF-CEM leukemia, 26.7 µM in the assay on OVCAR-4 ovarian, 1840 nM with LOX IMVI melanoma and 3820 nM with UO-31 renal. In addition, the TGI was 7.96 µM in the assay on OVCAR-8 ovarian; 6.8 µM in the assay with 786-0 renal; 28.7 µM in the assay on EKVX NSCLC; 4.15 µM in the assay on KM12 colon; 44 µM with SK-MEL-28 melanoma; 4.18 µM in the assay with SF-295 CNS. For the same compound, the TGI in the assay on CCRF-CEM leukemia was 8.74 µM; with OVCAR-4 ovarian, above 100 µM; in the assay on LOX IMVI melanoma it was 3.66 µM; with UO-31 renal, 16.2 µM.
As to `CN(N=O)C(=O)Nc1c[nH]c(=O)[nH]c1=O`, the TGI in the assay with OVCAR-8 ovarian, with 786-0 renal, with EKVX NSCLC, in the assay on KM12 colon, with SK-MEL-28 melanoma and with SF-295 CNS was above 100 µM in each case. Moreover, the TGI with CCRF-CEM leukemia, with OVCAR-4 ovarian, with LOX IMVI melanoma and with UO-31 renal was above 100 µM in each case.
On to `Cc1ccc(C)c(NC(=O)C(=O)C2C(=O)C3=C(CC2(C)C)Nc2ccccc2S3)c1` (centres undefined), for which the TGI in the assay on OVCAR-8 ovarian, in the assay on 786-0 renal, in the assay on EKVX NSCLC, in the assay on KM12 colon, with SK-MEL-28 melanoma and in the assay with SF-295 CNS was above 100 µM throughout. Also, the TGI in the assay with CCRF-CEM leukemia, with OVCAR-4 ovarian, in the assay on LOX IMVI melanoma and in the assay with UO-31 renal was above 100 µM each time.
With `CC(Cn1c2c3ccccc3ccc2c2oc(=O)c3ccccc3c21)N(C)C` (centres undefined), the TGI in the assay with OVCAR-8 ovarian, with 786-0 renal, in the assay with EKVX NSCLC, with KM12 colon, with SK-MEL-28 melanoma and in the assay with SF-295 CNS was above 100 µM in each case. The TGI in the assay on CCRF-CEM leukemia, with OVCAR-4 ovarian, with LOX IMVI melanoma and in the assay with UO-31 renal was above 100 µM each time.
Consider `CCN1C(=O)C/C(=C\C(C)=O)Nc2ccccc21`, for which the TGI in the assay on OVCAR-8 ovarian, with 786-0 renal, in the assay on EKVX NSCLC, in the assay on KM12 colon, in the assay with SK-MEL-28 melanoma and in the assay on SF-295 CNS was above 100 µM each time. Moreover, the TGI in the assay on CCRF-CEM leukemia, with OVCAR-4 ovarian, with LOX IMVI melanoma and in the assay with UO-31 renal was above 100 µM each time.
In the case of `O=C1c2ccccc2-c2c1c1ccccc1c(=O)n2CCCNCCCn1c2c(c3ccccc3c1=O)C(=O)c1ccccc1-2`, the GI50 with OVCAR-8 ovarian was 2460 nM; in the assay with 786-0 renal it was 8530 nM; in the assay on EKVX NSCLC, 3.98 µM; in the assay on KM12 colon, 2900 nM; in the assay with SK-MEL-28 melanoma, 11 µM; in the assay on SF-295 CNS, 3.52 µM. The GI50 is 12.6 µM in the assay with CCRF-CEM leukemia, 3.2 µM in the assay on OVCAR-4 ovarian, 1490 nM with LOX IMVI melanoma and 2160 nM in the assay on UO-31 renal. Further, the TGI with OVCAR-8 ovarian was above 26 µM; in the assay with 786-0 renal, 29.8 µM; with EKVX NSCLC it was 14.8 µM; in the assay with KM12 colon, 9.65 µM; in the assay on SK-MEL-28 melanoma, above 36.9 µM; in the assay with SF-295 CNS, above 21.8 µM. Moreover, the TGI in the assay with CCRF-CEM leukemia is above 50 µM; in the assay with OVCAR-4 ovarian, 9.57 µM; in the assay on LOX IMVI melanoma, 8.25 µM; in the assay on UO-31 renal, above 50 µM.
Consider `CN/N=C(/Cc1occc(=O)c1O)C(=O)Nc1ccc(C)c(C)c1`, for which the TGI with OVCAR-8 ovarian, in the assay with 786-0 renal, with EKVX NSCLC, with KM12 colon, in the assay on SK-MEL-28 melanoma and in the assay with SF-295 CNS was above 100 µM throughout. Moreover, the TGI in the assay on CCRF-CEM leukemia, with OVCAR-4 ovarian, in the assay with LOX IMVI melanoma and in the assay with UO-31 renal was above 100 µM each time.
`COc1ccc(CN2C(=O)/C(=C\c3cc(OC)c(OC)c(OC)c3)c3cc(OC)ccc32)cc1`: the GI50 in the assay on OVCAR-8 ovarian is 2320 nM; in the assay with 786-0 renal it was 2290 nM; with EKVX NSCLC, 3.83 µM; with KM12 colon it was 2040 nM; with SK-MEL-28 melanoma, 1.72 µM; with SF-295 CNS, 3.26 µM. Moreover, the GI50 with CCRF-CEM leukemia is 3.4 µM; in the assay with OVCAR-4 ovarian, 3.5 µM; with LOX IMVI melanoma, 1350 nM; with UO-31 renal, 2670 nM. The TGI is above 23.9 µM in the assay on OVCAR-8 ovarian; 5.07 µM in the assay on 786-0 renal; above 65.6 µM with EKVX NSCLC; 4.05 µM with KM12 colon; 3.3 µM in the assay on SK-MEL-28 melanoma; above 31.4 µM in the assay on SF-295 CNS. In addition, the TGI in the assay with CCRF-CEM leukemia is above 100 µM; with OVCAR-4 ovarian, 27.4 µM; with LOX IMVI melanoma, 2.67 µM; in the assay on UO-31 renal it was 10.7 µM.
For `O=C1C2C(C(=O)N1O)N(Cc1ccccc1)C(=O)N2Cc1ccccc1` (centres undefined), the TGI with OVCAR-8 ovarian, in the assay with 786-0 renal, in the assay with EKVX NSCLC, in the assay with KM12 colon, in the assay with SK-MEL-28 melanoma and with SF-295 CNS was above 100 µM throughout. In addition, the TGI in the assay on CCRF-CEM leukemia, with OVCAR-4 ovarian, with LOX IMVI melanoma and in the assay on UO-31 renal was above 100 µM in each case.

The values above are taken from PubChem BioAssay (NCI).
